Literature values as cited in patent US10857195B2, “Plant extracts for improving sleep” (Kemin Industries, Inc., priority 2014, dated 2020).

Test system: aging mice
Details: RA administered to aging mice

catalase (CAT) activity in the brain: increased
superoxide dismutase (SOD) activity in the brain: increased
SMILES: O=C(/C=C/c1ccc(O)c(O)c1)O[C@H](Cc1ccc(O)c(O)c1)C(=O)O [RA, Rosmarinic acid]
malondialdehyde (MDA) in the brain: decreasing
